Reference: patent US20230348540A1, “Viral multimeric peptide constructs for targeting PDZ domains” (University of Copenhagen, priority 2020, published 2023)
Peptide text beside a SMILES is read from it. * marks the point of attachment. Biotin = O=C1N[C@H]2[C@H](CS[C@H]2CCCCC(=O)*)N1; Ahx = NCCCCCC(=O)O

Columns and labels:
[1] = SEC-MALS of peptides (oligomeric state); format: physicochemical; conditions: 50 μL of 1000 μM peptide, Example 7
Description: Size exclusion chromatography Multi angle light scattering (SEC-MALS): was done using an Agilent HPLC equipped with a Wyatt MALS setup, where 50 μL of 1000 μM, of indicated peptide, was loaded onto a Superdex200 Increase 10/300 column. Resulting data was analyzed and molecular weight was calculated using the ASTRA® software package, data was plotted using GraphPad Prism 8.3.

[2] = target: T1, PICK1 (Rattus norvegicus, UniProt Q9EP80); test: Fluorescence Polarization for PICK1 (Example 8); format: binding; conditions: in words, FIG. 17
T1 construct: Full length rat PICK1 (pET41) was prepared as described earlier; inferred from pET41 and glutathione-Sepharose capture) (N, cleaved yes); made in house; host or cells: E. coli BL21-DE3-pLysS
Description: The plates were incubated 30-40 min on ice and the fluorescence polarization was measured on an Omega POLARstar plate (BMG LABTECH) reader using excitation filter at 485 nm and long pass emission filter at 520 nm. The data was plotted using GraphPad Prism 8.3, and fitted to the ‘One site—Fit’ Ki competition curve, to extract apparent KI values.

[3] = target: T2, FL-PSD-95 (Homo sapiens, UniProt P78352); test: Size exclusion chromatography of PSD-95 in absence or presence of peptide; conditions: 10 μM FL-PSD-95, 50 μM peptide, Example 8
T2 construct: TRX-6xHis-hPSD95 1-724 encoding plasmid; TRX (thioredoxin) (N); 6xHis (N); made in house; host or cells: E. coli BL21-DE3-pLysS
Description: (§1) Size exclusion chromatography: was done using a Äkta purifier with a Superdex200 Increase 10/300 column, where, 500 μL of 30 μM PICK1 or 200 μL 10 uM of FL-PSD-95 in absence or presence of peptides was loaded. Absorbance profile was measured at 280 nm and plotted against elution volume using Graph Pad Prism 8.3.

[4] = target: T3, PSD-95 PDZ12 (Homo sapiens, UniProt P78352); test: Fluorescence polarization for PSD-95 PDZ12 (Example 8); format: binding; conditions: in words, FIG. 18
T3 construct: Fluorescence polarization for PSD-95 (FL and PDZ12)
Description: Fluorescence polarization for PSD-95 (FL and PDZ12): Fluorescence polarization was carried out in competition mode at a fixed concentration of protein (150 nM) and tracer (5[…], 5 nM), against an increasing concentration of unlabeled peptide.

[5] = target: T3, PSD-95 PDZ12; test: Confocal microscopy on liquid-liquid phase separation droplets, PSD-95 PDZ1-2 (Example 8); conditions: 100 μM PSD-95 PDZ1-2
Description: Images were acquired using averaging of 4 line scans and 12-bit. The liquid-liquid phase separation droplets were prepared in the desired concentration in Phosphate buffered Saline supplemented with 1 mM TCEP (PBS-TCEP) and added to an untreated lab tec (155411PK) and imaged after being allowed to settle for 5 min at 25° C. For samples containing fluorescent protein or peptide the content of fluorescent protein or peptide was kept at 1% of indicated total protein or peptide concentration.

[6] = target: T1, PICK1; test: Size exclusion chromatography of PICK1 in absence or presence of peptide; conditions: 30 μM PICK1, 50 μM peptide, Example 8
Description: Absorbance profiles were measured at 280 nm and plotted against elution volume using Graph Pad Prism 8.3.
as §1

[7] = target: T1, PICK1; test: Fluorescence polarization competition of HWLKV substitution peptide libraries (Example 6); format: binding; conditions: relative to HWLKV, tracer 5FAM-HWLKV 20 nM, FIG. 7, in words
Description: Fluorescence polarization: Fluorescence polarization was carried out in competition mode at a fixed concentration of protein and tracer (5[…], 20 nM), against an increasing concentration of indicated unlabeled peptide. The plate was incubated 20 min on ice in a black half-area Corning Black non-binding surface 96-well plate and the fluorescence polarization was measured directly on a Omega POLARstar plate reader using excitation filter at 488-nm and long pass emission filter at 535-nm.

[8] = target: T4, PSD-95 (Homo sapiens, UniProt P78352); test: SDS-PAGE sedimentation assay; conditions: 3 μM PSD-95, 12 μM or 36 μM peptide
T4 construct: TRX-6xHis-hPSD95 1-724 encoding plasmid; TRX (thioredoxin) (N); 6xHis (N); made in house; host or cells: E. coli BL21-DE3-pLysS
T4 sequence (P78352 whole entry): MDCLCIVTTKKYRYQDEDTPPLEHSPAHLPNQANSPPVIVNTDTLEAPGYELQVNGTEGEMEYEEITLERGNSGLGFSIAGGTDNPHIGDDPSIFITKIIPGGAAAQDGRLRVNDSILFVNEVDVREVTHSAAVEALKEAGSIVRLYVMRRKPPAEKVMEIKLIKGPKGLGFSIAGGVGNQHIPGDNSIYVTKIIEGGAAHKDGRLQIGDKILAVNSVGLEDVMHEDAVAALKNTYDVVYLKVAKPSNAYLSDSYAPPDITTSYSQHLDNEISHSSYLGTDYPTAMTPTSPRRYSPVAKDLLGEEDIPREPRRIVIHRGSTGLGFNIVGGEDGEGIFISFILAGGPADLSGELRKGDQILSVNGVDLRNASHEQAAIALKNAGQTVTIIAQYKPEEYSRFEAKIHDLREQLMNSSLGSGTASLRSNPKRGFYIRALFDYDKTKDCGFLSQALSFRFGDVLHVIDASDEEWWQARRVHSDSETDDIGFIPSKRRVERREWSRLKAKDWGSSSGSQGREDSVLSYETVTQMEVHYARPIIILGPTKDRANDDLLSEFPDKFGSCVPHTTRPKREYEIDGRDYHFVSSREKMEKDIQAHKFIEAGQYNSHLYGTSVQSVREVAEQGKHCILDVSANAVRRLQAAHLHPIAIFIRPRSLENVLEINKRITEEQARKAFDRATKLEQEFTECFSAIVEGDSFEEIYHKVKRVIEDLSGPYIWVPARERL
Description: SDS-PAGE sedimentation assay: Proteins were mixed in the desired concentration in PBS-TCEP and equilibrated for 10 min before centrifugation at 20 000 g for 15 min at 25° C. using a temperature controlled table top centrifuge. Following centrifugation the supernatant was collected and the pellet was re-suspended in an equal amount of PBS-TCEP, usually 50 μL. To ensure proper resuspension of LLPS, the samples were vortexed before addition of SDS buffer followed by boiling at 95° C. for 5 min. Supernatant and pellet fractions were run on any kD™ Mini-PROTEAN® TGX™ Precast Protein Gels (10 or 15 wells, BioRad 4569036 or 4569033). Gels were imaged using a Li-COR Odyssey gel scanner and band intensities were analyzed using ImageJ.

T3 sequence (P78352 61-249 limits assumed): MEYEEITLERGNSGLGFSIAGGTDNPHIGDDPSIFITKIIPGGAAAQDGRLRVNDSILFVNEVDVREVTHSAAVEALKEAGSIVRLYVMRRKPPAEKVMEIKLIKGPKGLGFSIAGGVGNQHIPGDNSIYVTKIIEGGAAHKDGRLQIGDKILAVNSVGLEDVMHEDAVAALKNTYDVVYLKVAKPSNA
T1 sequence (Q9EP80 whole entry): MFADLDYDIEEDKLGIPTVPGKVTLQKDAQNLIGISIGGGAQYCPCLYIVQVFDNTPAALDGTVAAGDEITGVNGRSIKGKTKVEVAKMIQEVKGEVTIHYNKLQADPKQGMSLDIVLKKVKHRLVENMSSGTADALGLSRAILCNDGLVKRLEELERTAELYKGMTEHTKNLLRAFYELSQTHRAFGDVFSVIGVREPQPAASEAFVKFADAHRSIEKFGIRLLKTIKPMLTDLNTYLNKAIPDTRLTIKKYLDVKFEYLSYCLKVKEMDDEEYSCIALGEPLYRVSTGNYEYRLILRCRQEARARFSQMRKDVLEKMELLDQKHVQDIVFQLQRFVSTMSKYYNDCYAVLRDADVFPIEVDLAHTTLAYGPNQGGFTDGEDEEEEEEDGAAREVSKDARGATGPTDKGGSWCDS
T2 sequence (P78352 whole entry): as the sequence (P78352 whole entry) above

## CC[C@H](C)[C@H](NC(=O)[C@H](CCC(=O)O)NC(=O)CNC(=O)CCCCCNC(=O)CCCC[C@@H]1SC[C@@H]2NC(=O)N[C@@H]21)C(=O)N[C@@H](C)C(=O)N[C@@H](CCCCN)C(=O)N[C@@H](CO)C(=O)N[C@@H](CC(C)C)C(=O)N[C@@H](CCCCN)C(=O)N[C@@H](CCC(=O)O)C(=O)N[C@H](C(=O)N[C@@H](C)C(=O)N[C@@H](CCCCN)C(=O)N[C@@H](CO)C(=O)N[C@@H](CC(C)C)C(=O)N[C@@H](CCCCN)C(=O)N[C@@H](CCC(=O)O)C(=O)N[C@H](C(=O)N[C@@H](C)C(=O)N[C@@H](Cc1c[nH]c2ccccc12)C(=O)N[C@@H](CO)C(=O)N[C@@H](CC(C)C)C(=O)N[C@@H](CCCCN)C(=O)N[C@@H](CCC(=O)O)C(=O)N[C@H](C(=O)N[C@@H](C)C(=O)N[C@@H](CCCCN)C(=O)N[C@@H](CO)C(=O)N[C@@H](CC(C)C)C(=O)N[C@@H](CCCCN)C(=O)NCC(=O)NCC(=O)NCC(=O)NCC(=O)N[C@@H](CO)C(=O)N[C@@H](Cc1c[nH]cn1)C(=O)N[C@@H](Cc1c[nH]c2ccccc12)C(=O)N[C@@H](CC(C)C)C(=O)N[C@@H](CCCCN)C(=O)N[C@H](C(=O)O)C(C)C)[C@@H](C)CC)[C@@H](C)CC)[C@@H](C)CC [CC-Hex2-GS4-HWLKV] ({Biotin-Ahx}-GEIAKSLKEIAKSLKEIAWSLKEIAKSLKGGGGSHWLKV-OH; C-terminus assumed)
[1]
  oligomeric configuration (SEC-MALS): hexameric configuration
[2]
  binding affinity to PICK1 as compared to the dimeric GCN4p1-GS4-HWLKV: superior binding affinity

## CC[C@H](C)[C@H](NC(=O)[C@H](CCC(=O)O)NC(=O)CNC(=O)CCCCCNC(=O)CCCC[C@@H]1SC[C@@H]2NC(=O)N[C@@H]21)C(=O)N[C@@H](C)C(=O)N[C@@H](CCCCN)C(=O)N[C@@H](CO)C(=O)N[C@@H](CC(C)C)C(=O)N[C@@H](CCCCN)C(=O)N[C@@H](CCC(=O)O)C(=O)N[C@H](C(=O)N[C@@H](C)C(=O)N[C@@H](CCCCN)C(=O)N[C@@H](CO)C(=O)N[C@@H](CC(C)C)C(=O)N[C@@H](CCCCN)C(=O)N[C@@H](CCC(=O)O)C(=O)N[C@H](C(=O)N[C@@H](C)C(=O)N[C@@H](Cc1c[nH]c2ccccc12)C(=O)N[C@@H](CO)C(=O)N[C@@H](CC(C)C)C(=O)N[C@@H](CCCCN)C(=O)N[C@@H](CCC(=O)O)C(=O)N[C@H](C(=O)N[C@@H](C)C(=O)N[C@@H](CCCCN)C(=O)N[C@@H](CO)C(=O)N[C@@H](CC(C)C)C(=O)N[C@@H](CCCCN)C(=O)NCC(=O)NCC(=O)NCC(=O)NCC(=O)N[C@@H](CO)C(=O)N[C@H](C(=O)N[C@@H](CCC(=O)O)C(=O)N[C@H](C(=O)N[C@@H](CC(=O)O)C(=O)N[C@H](C(=O)O)C(C)C)[C@@H](C)O)[C@@H](C)CC)[C@@H](C)CC)[C@@H](C)CC)[C@@H](C)CC [CC-Hex2-GS4-IETDV] ({Biotin-Ahx}-GEIAKSLKEIAKSLKEIAWSLKEIAKSLKGGGGSIETDV-OH; C-terminus assumed)
[3]
  formation of higher order oligomers of PSD-95 (SEC): ability to form higher order oligomers of PSD-95
[4]
  binding affinity towards PSD95 PDZ1-2: high binding affinity

## CC[C@H](C)[C@H](NC(=O)[C@H](CCC(=O)O)NC(=O)CNC(=O)CCCCCNC(=O)CCCC[C@@H]1SC[C@@H]2NC(=O)N[C@@H]21)C(=O)N[C@@H](C)C(=O)N[C@@H](CCCCN)C(=O)N[C@@H](CO)C(=O)N[C@@H](CC(C)C)C(=O)N[C@@H](CCCCN)C(=O)N[C@@H](CCC(=O)O)C(=O)N[C@H](C(=O)N[C@@H](C)C(=O)N[C@@H](CCCCN)C(=O)N[C@@H](CO)C(=O)N[C@@H](CC(C)C)C(=O)N[C@@H](CCCCN)C(=O)N[C@@H](CCC(=O)O)C(=O)N[C@H](C(=O)N[C@@H](C)C(=O)N[C@@H](Cc1c[nH]c2ccccc12)C(=O)N[C@@H](CO)C(=O)N[C@@H](CC(C)C)C(=O)N[C@@H](CCCCN)C(=O)N[C@@H](CCC(=O)O)C(=O)N[C@H](C(=O)N[C@@H](C)C(=O)N[C@@H](CCCCN)C(=O)N[C@@H](CO)C(=O)N[C@@H](CC(C)C)C(=O)N[C@@H](CCCCN)C(=O)NCC(=O)NCC(=O)NCC(=O)NCC(=O)N[C@@H](CO)C(=O)N[C@@H](CCCNC(=N)N)C(=O)N[C@@H](CCCNC(=N)N)C(=O)N[C@H](C(=O)N[C@H](C(=O)N1CCC[C@H]1C(=O)N[C@H](C(=O)O)C(C)C)[C@@H](C)O)[C@@H](C)O)[C@@H](C)CC)[C@@H](C)CC)[C@@H](C)CC [CC-Hex2-GS4-RRTTPV] ({Biotin-Ahx}-GEIAKSLKEIAKSLKEIAWSLKEIAKSLKGGGGSRRTTPV-OH; C-terminus assumed)
[3]
  formation of higher order oligomers of PSD-95 (SEC): Formation of higher order oligomers of PSD-95 was also observed
[4]
  binding affinity towards PSD95 PDZ1-2: high binding affinity
[5]
  threshold for LLPS formation of PSD-95 PDZ1-2 versus dimeric GCN4p1-GS4-RRTTPV: lowered thresholds for LLPS formation

## CC[C@H](C)[C@H](NC(=O)[C@H](C)NC(=O)[C@H](C)NC(=O)[C@H](CC(C)C)NC(=O)[C@H](CCC(=O)O)NC(=O)[C@H](Cc1c[nH]c2ccccc12)NC(=O)[C@H](CCCCN)NC(=O)[C@@H](NC(=O)[C@H](C)NC(=O)[C@H](C)NC(=O)[C@H](CC(C)C)NC(=O)[C@H](CCC(=O)O)NC(=O)[C@H](CCCCN)NC(=O)[C@H](CCCCN)NC(=O)[C@@H](NC(=O)[C@H](C)NC(=O)[C@H](C)NC(=O)[C@H](CC(C)C)NC(=O)[C@H](CCC(=O)O)NC(=O)[C@H](CCC(N)=O)NC(=O)[C@H](CCCCN)NC(=O)[C@@H](NC(=O)[C@H](C)NC(=O)[C@H](C)NC(=O)[C@H](CC(C)C)NC(=O)[C@H](CCC(=O)O)NC(=O)CNC(=O)CCCCCNC(=O)CCCC[C@@H]1SC[C@@H]2NC(=O)N[C@@H]21)[C@@H](C)CC)[C@@H](C)CC)[C@@H](C)CC)C(=O)N[C@@H](CCCCN)C(=O)N[C@@H](CCC(N)=O)C(=O)NCC(=O)NCC(=O)NCC(=O)NCC(=O)N[C@@H](CO)C(=O)N[C@@H](Cc1c[nH]cn1)C(=O)N[C@@H](Cc1c[nH]c2ccccc12)C(=O)N[C@@H](CC(C)C)C(=O)N[C@@H](CCCCN)C(=O)N[C@H](C(=O)O)C(C)C [CC-Tet-GS4-HWLKV] ({Biotin-Ahx}-GELAAIKQELAAIKKELAAIKWELAAIKQGGGGSHWLKV-OH; C-terminus assumed)
[1]
  oligomeric configuration (SEC-MALS): trimeric configuration
[6]
  formation of higher order oligomers of PICK1 (SEC): ability to form higher order oligomers of PICK1

## EIRV (DAT C5 VARIANT)
[7]
  Fold affinity change of combinatorial peptide library: optimal 4-mer sequences

## GEIAKSLKEIAKSLKEIAWSLKEIAKSLKGGGGSNSVRV (CC-Hex2-GS4-NSVRV)
[2]
  binding affinity to PICK1 as compared to the dimeric GCN4p1-GS4-HWLKV: superior binding affinity

## IIV [DAT-C5 variant]
[7]
  Fold affinity change of combinatorial peptide library: optimal 3-mer sequences

## IRV [DAT-C5 variant]
[7]
  Fold affinity change of combinatorial peptide library: optimal 3-mer sequences

## NSVRV (DAT C5 VARIANT)
[7]
  Fold affinity change of combinatorial peptide library: optimal 5-mer sequences

## SNTANRRTTPV (RRTTPV monomer)
[8]
  distribution of PSD-95 between supernatant and pellet: the majority of PSD-95 is found in the supernatant

## TSIRV (DAT C5 VARIANT)
[7]
  Fold affinity change of combinatorial peptide library: optimal 5-mer sequences

## YIIV (DAT C5 VARIANT)
[7]
  Fold affinity change of combinatorial peptide library: optimal 4-mer sequences
